Results taken from US12077503B2, “Substituted cyclic amides and their use as herbicides” (FMC CORPORATION, priority 2015, dated 2024).

What was measured:
Type in all cases: in vivo
[1] = tested on: barnyardgrass (Echinochloa crus-galli); test: Test G Pre-Emergence Protocol; conditions: Echinochloa crus-galli, pre-emergence, 312 h, evaluated after 13 days; for pest or weed control at 15.625 g/ha: 15.625 g ai/ha; for pest or weed control at 15.625 g/ha / pest or weed control at 250 g/ha: read-out: Barnyardgrass damage rating (100=total damage to plant; 0=no damage to plant); for pest or weed control at 62.5 g/ha: 62.5 g ai/ha, 100=total damage to plant, 0=no damage to plant, read-out: Barnyardgrass damage rating; for pest or weed control at 250 g/ha: 250 g ai/ha
Outline: (§1)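 Pots of seeds in standard soil were grown for one day in a glasshouse (24/16 °C day/night, 14 h light, 65% humidity), then sprayed with compound in acetone/water 50:50 with 0.5% Tween 20 at 15.625, 62.5 or 250 g/ha. Damage was scored after 13 days on a 0 (none) to 100 (total) scale.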

[2] = tested on: corn (Zea mays); test: Test G Pre-Emergence Protocol; conditions: evaluated after 13 days; for plant injury at 62.5 g/ha: 62.5 g ai/ha, 100=total damage to plant, 0=no damage to plant, read-out: Corn damage rating
Outline: as §1

[3] = tested on: giant foxtail (Setaria faberi); test: Test G Pre-Emergence Protocol; conditions: Setaria faberi, pre-emergence, 312 h, evaluated after 13 days; for pest or weed control at 15.625 g/ha: 15.625 g ai/ha; for pest or weed control at 15.625 g/ha / pest or weed control at 250 g/ha: read-out: Foxtail, Giant damage rating (100=total damage to plant; 0=no damage to plant); for pest or weed control at 62.5 g/ha: 62.5 g ai/ha, 100=total damage to plant, 0=no damage to plant, read-out: Foxtail, Giant damage rating; for pest or weed control at 250 g/ha: 250 g ai/ha
Outline: as §1

[4] = tested on: ivy-leaved morning glory (Ipomoea hederacea); test: Test G Pre-Emergence Protocol; conditions: evaluated after 13 days; for pest or weed control at 15.625 g/ha: 15.625 g ai/ha; for pest or weed control at 62.5 g/ha: 62.5 g ai/ha, 100=total damage to plant, 0=no damage to plant, read-out: Morningglory, Ivy-leaved damage rating
Outline: as §1

[5] = tested on: redroot pigweed (Amaranthus retroflexus); test: Test G Pre-Emergence Protocol; conditions: evaluated after 13 days; for pest or weed control at 62.5 g/ha: 62.5 g ai/ha, 100=total damage to plant, 0=no damage to plant, read-out: Pigweed, Redroot damage rating
Outline: as §1

[6] = tested on: velvetleaf (Abutilon theophrasti); test: Test G Pre-Emergence Protocol; conditions: evaluated after 13 days; for pest or weed control at 62.5 g/ha: 62.5 g ai/ha, 100=total damage to plant, 0=no damage to plant, read-out: Velvetleaf damage rating
Outline: as §1

[7] = tested on: barnyardgrass (Echinochloa crus-galli); test: Test G Post-Emergence Protocol; conditions: Echinochloa crus-galli, post-emergence, 312 h, read-out: Barnyardgrass damage rating; for pest or weed control at 15.625 g/ha: 15.625 g ai/ha, evaluated after 13 days (100=total damage to plant; 0=no damage to plant); for pest or weed control at 62.5 g/ha: 62.5 g ai/ha; for pest or weed control at 62.5 g/ha / pest or weed control at 250 g/ha: evaluated after 13 days, 100=total damage to plant, 0=no damage to plant; for pest or weed control at 250 g/ha: 250 g ai/ha
Outline: (§2)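 Foliar application was made 8 days after sowing, using an aqueous spray of the active in acetone/water (50:50) with 0.5% Tween 20, at doses of 15.625, 62.5 or 250 g/ha. Injury was assessed 13 days later, where 100 meant the plant was fully damaged.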

[8] = tested on: corn (Zea mays); test: Test G Post-Emergence Protocol; conditions: Zea mays, post-emergence, 312 h, read-out: Corn damage rating; for plant injury at 15.625 g/ha: 15.625 g ai/ha, evaluated after 13 days (100=total damage to plant; 0=no damage to plant); for plant injury at 62.5 g/ha: 62.5 g ai/ha; for plant injury at 62.5 g/ha / plant injury at 250 g/ha: evaluated after 13 days, 100=total damage to plant, 0=no damage to plant; for plant injury at 250 g/ha: 250 g ai/ha
Outline: as §2

[9] = tested on: giant foxtail (Setaria faberi); test: Test G Post-Emergence Protocol; conditions: Setaria faberi, post-emergence, 312 h, read-out: Foxtail, Giant damage rating; for pest or weed control at 15.625 g/ha: 15.625 g ai/ha, evaluated after 13 days (100=total damage to plant; 0=no damage to plant); for pest or weed control at 62.5 g/ha: 62.5 g ai/ha; for pest or weed control at 62.5 g/ha / pest or weed control at 250 g/ha: evaluated after 13 days, 100=total damage to plant, 0=no damage to plant; for pest or weed control at 250 g/ha: 250 g ai/ha
Outline: as §2

[10] = tested on: ivy-leaved morning glory (Ipomoea hederacea); test: Test G Post-Emergence Protocol; conditions: Ipomoea, post-emergence, 312 h, read-out: Morningglory, Ivy-leaved damage rating; for pest or weed control at 15.625 g/ha: 15.625 g ai/ha, evaluated after 13 days (100=total damage to plant; 0=no damage to plant); for pest or weed control at 62.5 g/ha: 62.5 g ai/ha; for pest or weed control at 62.5 g/ha / pest or weed control at 250 g/ha: evaluated after 13 days, 100=total damage to plant, 0=no damage to plant; for pest or weed control at 250 g/ha: 250 g ai/ha
Outline: as §2

[11] = tested on: redroot pigweed (Amaranthus retroflexus); test: Test G Post-Emergence Protocol; conditions: Amaranthus retroflexus, post-emergence, 312 h, read-out: Pigweed, Redroot damage rating; for pest or weed control at 15.625 g/ha: 15.625 g ai/ha, evaluated after 13 days (100=total damage to plant; 0=no damage to plant); for pest or weed control at 62.5 g/ha: 62.5 g ai/ha; for pest or weed control at 62.5 g/ha / pest or weed control at 250 g/ha: evaluated after 13 days, 100=total damage to plant, 0=no damage to plant; for pest or weed control at 250 g/ha: 250 g ai/ha
Outline: as §2

[12] = tested on: velvetleaf (Abutilon theophrasti); test: Test G Post-Emergence Protocol; conditions: Abutilon theophrasti, post-emergence, 312 h, read-out: Velvetleaf damage rating; for pest or weed control at 15.625 g/ha: 15.625 g ai/ha, evaluated after 13 days (100=total damage to plant; 0=no damage to plant); for pest or weed control at 62.5 g/ha: 62.5 g ai/ha; for pest or weed control at 62.5 g/ha / pest or weed control at 250 g/ha: evaluated after 13 days, 100=total damage to plant, 0=no damage to plant; for pest or weed control at 250 g/ha: 250 g ai/ha
Outline: as §2

[13] = Ipomoea, pre-emergence, 312 h, read-out: Morningglory, Ivy-leaved damage rating (100=total damage to plant; 0=no damage to plant)
[14] = Amaranthus retroflexus, pre-emergence, 312 h
[15] = Abutilon theophrasti, pre-emergence, 312 h

| Compound | pest or weed control at 15.625 g/ha [1] | pest or weed control at 62.5 g/ha [1] | pest or weed control at 250 g/ha [1] | plant injury at 62.5 g/ha ([2]; Zea mays, pre-emergence, 312 h) | pest or weed control at 15.625 g/ha [3] | pest or weed control at 62.5 g/ha [3] | pest or weed control at 250 g/ha [3] | pest or weed control at 15.625 g/ha [4, 13] | pest or weed control at 62.5 g/ha ([4]; Ipomoea, pre-emergence, 312 h) | pest or weed control at 62.5 g/ha [5, 14] | pest or weed control at 62.5 g/ha [6, 15] | pest or weed control at 15.625 g/ha [7] | pest or weed control at 62.5 g/ha [7] | pest or weed control at 250 g/ha [7] | plant injury at 15.625 g/ha [8] | plant injury at 62.5 g/ha [8] | plant injury at 250 g/ha [8] | pest or weed control at 15.625 g/ha [9] | pest or weed control at 62.5 g/ha [9] | pest or weed control at 250 g/ha [9] | further results |
| --- | --- | --- | --- | --- | --- | --- | --- | --- | --- | --- | --- | --- | --- | --- | --- | --- | --- | --- | --- | --- | --- |
| COc1c(Cl)ccc([C@H]2CN(C)C(=O)[C@@H]2C(=O)Nc2cccc(F)c2F)c1F [Compound 1773] | 90% | 90% | 90% | 80% | 90% | 90% | 90% | 0% | 60% | 20% | 30% | 80% | 80% | 80% | 70% | 80% | 80% | 80% | 80% | 80% | Corn damage rating (100=total damage to plant; 0=no damage to plant) ([2]; 15.625 g ai/ha): 70; Corn damage rating (100=total damage to plant; 0=no damage to plant) ([2]; 250 g ai/ha): 80; Morningglory, Ivy-leaved damage rating (100=total damage to plant; 0=no damage to plant) ([4]; 250 g ai/ha): 80; Pigweed, Redroot damage rating (100=total damage to plant; 0=no damage to plant) ([5]; 15.625 g ai/ha): 20; Pigweed, Redroot damage rating (100=total damage to plant; 0=no damage to plant) ([5]; 250 g ai/ha): 70; Velvetleaf damage rating (100=total damage to plant; 0=no damage to plant) ([6]; 15.625 g ai/ha): 10; Velvetleaf damage rating (100=total damage to plant; 0=no damage to plant) ([6]; 250 g ai/ha): 60; pest or weed control at 15.625 g/ha [10]: 20%; pest or weed control at 62.5 g/ha [10]: 10%; pest or weed control at 250 g/ha [10]: 60%; pest or weed control at 15.625 g/ha [11]: 20%; pest or weed control at 62.5 g/ha [11]: 20%; pest or weed control at 250 g/ha [11]: 40%; pest or weed control at 15.625 g/ha [12]: 0%; pest or weed control at 62.5 g/ha [12]: 20%; pest or weed control at 250 g/ha [12]: 40% |
| CN1C[C@@H](c2cccc(C(F)(F)F)c2)[C@H](C(=O)Nc2cccc(F)n2)C1=O [Compound 1817] | 0% | 0% | 0% | 0% | 0% | 0% | 10% | 0% | 0% | 0% | 0% | 0% | 0% | 0% | 0% | 0% | 0% | 0% | 0% | 0% | plant injury at 15.625 g/ha ([2]; Zea mays, pre-emergence, 312 h, 15.625 g ai/ha, read-out: Corn damage rating (100=total damage to plant; 0=no damage to plant)): 0%; plant injury at 250 g/ha ([2]; Zea mays, pre-emergence, 312 h, 250 g ai/ha, read-out: Corn damage rating (100=total damage to plant; 0=no damage to plant)): 0%; pest or weed control at 250 g/ha ([4]; Ipomoea, pre-emergence, 312 h, 250 g ai/ha, read-out: Morningglory, Ivy-leaved damage rating (100=total damage to plant; 0=no damage to plant)): 0%; pest or weed control at 15.625 g/ha ([5]; Amaranthus retroflexus, pre-emergence, 312 h, 15.625 g ai/ha, read-out: Pigweed, Redroot damage rating (100=total damage to plant; 0=no damage to plant)): 0%; pest or weed control at 250 g/ha ([5]; Amaranthus retroflexus, pre-emergence, 312 h, 250 g ai/ha, read-out: Pigweed, Redroot damage rating (100=total damage to plant; 0=no damage to plant)): 0%; pest or weed control at 15.625 g/ha ([6]; Abutilon theophrasti, pre-emergence, 312 h, 15.625 g ai/ha, read-out: Velvetleaf damage rating (100=total damage to plant; 0=no damage to plant)): 0%; pest or weed control at 250 g/ha ([6]; Abutilon theophrasti, pre-emergence, 312 h, 250 g ai/ha, read-out: Velvetleaf damage rating (100=total damage to plant; 0=no damage to plant)): 0%; pest or weed control at 15.625 g/ha [10]: 0%; pest or weed control at 62.5 g/ha [10]: 0%; pest or weed control at 250 g/ha [10]: 0%; pest or weed control at 15.625 g/ha [11]: 0%; pest or weed control at 62.5 g/ha [11]: 0%; pest or weed control at 250 g/ha [11]: 0%; pest or weed control at 15.625 g/ha [12]: 0%; pest or weed control at 62.5 g/ha [12]: 0%; pest or weed control at 250 g/ha [12]: 0% |
